Data from publication PMC6896172, “Successful Targeting of the Warburg Effect in Prostate Cancer by Glucose-Conjugated 1,4-Naphthoquinones” (Cancers, 2019).

How the values were obtained:
PC-3 cells = assay: MTT cytotoxicity assay in PC-3 cells; assay type: cell-based, human; settings: for IC50: 48 h of treatment; for SI [IC50(PNT2) / IC50(PC-3)]: ratio of IC50 in PNT2 cells to IC50 in PC-3 cells, 48 h
Excerpt: (§1) For general experiments human prostate cancer cell lines PC-3 and DU145 (docetaxel-resistant, androgen-independent, AR-FL(−), AR-V7(−)), 22Rv1 and VCaP (docetaxel-sensitive, androgen-independent, AR-FL(+), AR-V7(+), and LNCaP (docetaxel sensitive, androgen-dependent, AR-FL(+), AR-V7(−) were used. PC-3, 22Rv1, LNCaP cells as well as the human prostate non-cancer cells PNT2 and RWPE-1 were purchased from ATCC (Manassas, VA, USA). VCaP were purchased from ECACC (Salisbury, UK). The human fibroblast cell line MRC-9, the human embryonic kidney cell line HEK 293T, as well as the human umbilical vascular endothelial cell line HUVEC were kindly donated by Prof. Dr. Dr. med. Sonja Loges (University Medical Center Hamburg-Eppendorf, Hamburg, Germany). Cells were cultured according to the manufacturers’ instructions and were recently authenticated by a commercial service (Multiplexion, Heidelberg, Germany). Culture conditions are described in the Supplementary Information.
(§2) MTT (3-(4,5-dimethylthiazol-2-yl)-2,5-diphenyltetrazolium bromide) cytotoxicity assay was used for the evaluation of cytotoxicity of the compounds or their combinations. Experiments were performed as previously described. In brief, 6000 cells/well were seeded in 96-well plate, incubated overnight, and treated with the drugs in 100 µL/well of 10% FBS/RPMI media containing 2 g/L of D-(+)-glucose for 48 h, unless otherwise stated. For 2 h treatment the cells were treated with the drugs for 2 h in the culture media, then the media was exchanged to fresh drug-free media (100 µL/well) containing MTT reagent and the further steps were performed as previously described.
(§3) Table S4. Cytotoxic activity of the synthesized compounds. Cytotoxicity was determined in human prostate cancer PC-3 cells versus human prostate non-cancer
(§4) PNT2 cells after 48 h of treatment, as well as its ratio. IC50 was evaluated using MTT assay. SI–selectivity index. #–the IC50s in both cell lines were >100 µM.
(§5) Anisomycin was used as a reference substance.
(§6) No Formula IC50(PC-3) IC50(PNT2) SI […]

PNT2 cells = assay: MTT cytotoxicity assay in PNT2 cells; assay type: cell-based, human; settings: 48 h of treatment
Excerpt: as §1, §2, §3, §4, §5, §6

[1] = test system: human prostate cancer cell lines and human non-cancer cell lines; assay: MTT cytotoxicity profile in five prostate cancer versus five non-cancer cell lines; assay type: cell-based; settings: 48 h
Excerpt: as §1
MTT (3-(4,5-dimethylthiazol-2-yl)-2,5-diphenyltetrazolium bromide) cytotoxicity assay was used for the evaluation of cytotoxicity of the compounds or their combinations. Experiments were performed as previously described. […]

HUVEC cells = assay: MTT cytotoxicity assay in HUVEC cells; assay type: cell-based; settings: Homo sapiens, 48 h of treatment, non-cancer
Procedure: (§7) Dr. Dr. med. Sonja Loges (University Medical Center Hamburg-Eppendorf, Hamburg, Germany). Cells were cultured according to the manufacturers’ instructions and were recently authenticated by a commercial service (Multiplexion, Heidelberg, Germany). Culture conditions are described in the Supplementary Information.
as §2

HEK293 cells = assay: MTT cytotoxicity assay in HEK293 cells; assay type: cell-based; settings: Homo sapiens, 48 h of treatment, non-cancer
Procedure: as §7, §2

22Rv1 cells [2] = assay: Cell fractionation followed by Western blotting; assay type: cell-based, human; settings: 48 h
Procedure: (§8) Preparation of protein extracts for western blotting was performed as described previously. In brief, for western blotting, 1 × 10^6 cells/well were seeded in Petri dishes (ø 6 cm TC Dish (Sarstedt, Numbrecht, Germany) in 5 mL/dish), incubated overnight and treated with drugs in 5 mL/dish for an indicated time. Cells were harvested using a cell scraper, pelleted, and resuspended in the lysis buffer containing protease and phosphatase inhibitors. Further sample preparation and western blotting were performed as previously described with slight modifications. Relative optical density of the detected bands was quantified with Quantity One 4.6 software (Bio-Rad, Hercules, CA, USA). The primary and secondary antibodies used are listed in the Supplementary Information.
22Rv1 cells were seeded in T75 culture bottles (4 × 10^6 cells/bottle in 20 mL/bottle), treated for 48 h and harvested by scratching. The further separation of cytosolic, mitochondrial and nuclear fractions was performed using the Cell Fractionation Kit ab109719 (abcam, Cambridge, MA) as previously described. Mitochondrial and cytosolic fractions were concentrated using Amicon® Ultra-2 Centrifugal Filter device (Cat. No. UFC203024, Merck, Darmstadt, Germany). Nuclear fractions were additionally homogenized using QIAshedder kit (QIAGEN, Hilden, Germany).

VCaP cells = assay: MTT cytotoxicity assay in VCaP cells; assay type: cell-based; settings: Homo sapiens, 48 h of treatment, cancer
Procedure: as §7, §2

22Rv1 cells [3] = assay: Western blotting of treated cells; assay type: cell-based, human
Procedure: as §8

LNCaP cells = assay: MTT cytotoxicity assay in LNCaP cells; assay type: cell-based; settings: Homo sapiens, 48 h of treatment, cancer
Procedure: as §7, §2

22Rv1 cells [4] = assay: Colony formation assay; assay type: cell-based, human; settings: 22Rv1 cells treated with non-cytotoxic concentrations for 48 h
Procedure: Colony formation assays were performed as described before. In brief, cells were treated with the drugs for 48 h and then 100 alive cells were plated into each well of 6-well plates and incubated for 10 days. Surviving colonies were fixed, stained with Giemsa solution and counted.

22Rv1 cells [5] = assay: MTT cytotoxicity assay in 22Rv1 cells; assay type: cell-based, human; settings: for IC50: Homo sapiens
Procedure: as §7, §2

22Rv1 cells [6] = assay: Trypan blue exclusion viability assay; assay type: cell-based; settings: Homo sapiens, 48 h of treatment
Procedure: The in vitro effect of the drugs on cell viability and proliferation was evaluated using trypan blue exclusion assay as described before with minor modifications. In brief, cells (0.2 × 10^6 cells/well) were seeded in 12-well plates, incubated overnight, the media was replaced with fresh media (1 mL/well) and treated with the drugs for 48 h. Cells were harvested by trypsination and the viability was measured using trypan blue staining and Beckman Coulter Vi-CELL (Beckman Coulter, Krefeld, Germany).

MRC-9 cells = assay: MTT cytotoxicity assay in MRC-9 cells; assay type: cell-based; settings: Homo sapiens, MRC9, 48 h of treatment, non-cancer
Procedure: as §7, §2

22Rv1 cells [7] = assay: Mitochondrial membrane potential assay (JC-1, flow cytometry); assay type: cell-based, human; settings: 2 h of treatment
Procedure: The loss of mitochondrial membrane potential (Δψ) was measured by flow cytometry technique using staining with Δψ-sensitive dye JC-1 (5,5′,6,6′-tetrachloro-1,1′,3,3′-tetraethylimidacarbocyanine iodide). Cells were seeded in 12-well plates (100 × 10^3 cells/well in 1 mL/well) and incubated overnight. Then, the media was changed to PBS (1 mL/well) containing the investigational drugs. After 2 h of incubation (37 °C, 5% CO2, in the dark) the cells were trypsinized, pelleted, resuspended in 100 µL of 2 µM JC-1/PBS, incubated for 1 h (37 °C, 5% CO2, in the dark) and Δψ loss was measured by flow cytometry technique.

DU145 cells = assay: MTT cytotoxicity assay in DU145 cells; assay type: cell-based; settings: Homo sapiens, DU-145, 48 h of treatment, cancer
Procedure: as §7, §2

22Rv1 cells [8] = assay: Intracellular ROS (CM-H2DCFDA, flow cytometry); assay type: cell-based, human; settings: 2 h of treatment
Procedure: Intracellular ROS levels were estimated using the ROS-sensitive CM-H2DCFDA reagent (Cat. No. C6827, Molecular probes, Invitrogen, Eugene, OR, USA) as described before. In brief, 22Rv1 cells were seeded in 12-well plates (0.2 × 10^6 cells/well in 1 mL/well of media) and incubated overnight. The media was changed into freshly made pre-warmed 4 µM CM-H2DCFDA/PBS (0.5 mL/well) and incubated for 30 min (37 °C, 5% CO2, in the dark). Then, the CM-H2DCFDA solution was exchanged with 1 mL/well of pre-warmed PBS containing the drugs or H2O2 (positive control) at the indicated concentrations. After 2 h of incubation the cells were trypsinized and immediately analyzed by flow cytometry technique according to the manufacture’s protocols.

RWPE-1 cells = assay: MTT cytotoxicity assay in RWPE-1 cells; assay type: cell-based; settings: Homo sapiens, 48 h of treatment, non-cancer
Procedure: as §7, §2

COc1ccc(C[C@H]2NC[C@H](O)[C@H]2OC(C)=O)cc1 [Anisomycin, anisomycin, reference compound] was tested, and the IC50 (PC-3 cells) was 1.49 µM, the “SI [IC50(PNT2) / IC50(PC-3)]” value (PC-3 cells) was 0.47 and the IC50 (PNT2 cells) was 0.7 µM. The “selectivity to prostate cancer cell lines versus non-cancer cell lines” value [1] was “no selectivity was found”.
With CC1(C)OC2OC(C(O)COC3=CC(=O)c4c(O)cccc4C3=O)C(O)C2O1 (centres unmarked) [Compound 7] the IC50 (HUVEC cells) was 9.04 µM, the IC50 (HEK293 cells) was 3.57 µM and the “release of mitochondrial proteins AIF and cytochrome C” value (22Rv1 cells [2]) was “release of mitochondrial proteins”. For the same compound, the IC50 (PC-3 cells; Homo sapiens, PC-3, 48 h) was 6.1 µM, the “SI [IC50(PNT2) / IC50(PC-3)]” value (PC-3 cells) was 1.20 and the IC50 (VCaP cells) was 8.06 µM. The “cleavage of caspase-9” value (22Rv1 cells [3]; 2 h and 48 h treatment) was “observed already after 2 h”, the “AR-FL and AR-V7 expression” value (22Rv1 cells [3]; 48 h treatment) was “downregulated both, AR full length (AR-FL) and AR-V7” and the “Bax and Bcl-2 expression” value (22Rv1 cells [3]; 48 h treatment) was “up-regulation of Bax and down-regulation of Bcl-2”. The “LC3B-II and SQSTM1 levels (autophagy markers)” value (22Rv1 cells [3]; pre-cytotoxic and cytotoxic concentrations, 48 h) was “accumulation of both, LC3B-II and SQSTM1”, the IC50 (LNCaP cells) was 2.19 µM and the “cancer cell colony formation” value (22Rv1 cells [4]) was “suppress cancer cell colony formation”. The IC50 (PNT2 cells; Homo sapiens, PNT2, 48 h) was 7.29 µM, the “effect of N-acetyl-L-cysteine pre-treatment on cytotoxic activity” value (22Rv1 cells [5]; 22Rv1 cells, 1 mM NaC 1 h then co-treatment 48 h, FBS- and glucose-free RPMI) was “significantly suppressed the cytotoxic activity” and the IC50 (22Rv1 cells [5]; 22Rv1, 48 h of treatment, cancer, read-out: IC50 (22Rv1)) was 1.61 µM. The IC50 (22Rv1 cells [5]; 22Rv1 cells, 2 h treatment, read-out: IC50 after 2 h of treatment) was 24.2 µM, the IC50 (22Rv1 cells [6]) was 3.49 µM and the IC50 (MRC-9 cells) was 5.77 µM. For the same compound, the “effect on ΔΨm” value (22Rv1 cells [7]) was “quick ΔΨm loss”, the IC50 (DU145 cells) was 0.84 µM and the “effect on ROS level” value (22Rv1 cells [8]) was “remarkable and significant increase of the ROS level”. The IC50 (RWPE-1 cells) was 3.39 µM.
